Our source for the Ki values is patent US12514938B2, “Fibroblast activation protein targeting peptides” (PERSPECTIVE THERAPEUTICS, INC., priority 2023, dated 2026).

*1 amine or outer side, *2 acyl side, *3 side chain or, on linkers, in order; H or OH if unused. Where a SMILES comes first, the peptide text is derived from it. Bridges are numbered along the chain shown (N, C = ends). The star is where a group is joined. X2 = NC(=O)CN1CCN(CC(=O)O)CCN(CC(=O)NCCOCCOCCC(=O)NCCSCc2cc(C[*:1])cc(C[*:2])c2)CCN(CC(=O)O)CC1; X1 = NC(=O)CN1CCN(CC(=O)O)CCN(CC(=O)*)CCN(CC(=O)O)CC1; NOTA = O=C(O)CN1CCN(CC(=O)O)CCN(CC(=O)*)CC1; mXylylene = c1cc(C[*:1])cc(C[*:2])c1; oXylylene = c1ccc(C[*:2])c(C[*:1])c1; pXylylene = c1cc(C[*:2])ccc1C[*:1]; PEG4 = NCCOCCOCCOCCOCCC(=O)O; PEG2 = NCCOCCOCCC(=O)O; Butyryl = CCCC(=O)*; Ahx = NCCCCCC(=O)O

In general, Ki refers to a dissociation constant, usually derived from enzyme kinetics or from competition with a known ligand.

The test concerns the target T1, Human Fibroblast Activation Protein (FAP) (Homo sapiens, UniProt Q12884).
T1 sequence (Q12884 1-760): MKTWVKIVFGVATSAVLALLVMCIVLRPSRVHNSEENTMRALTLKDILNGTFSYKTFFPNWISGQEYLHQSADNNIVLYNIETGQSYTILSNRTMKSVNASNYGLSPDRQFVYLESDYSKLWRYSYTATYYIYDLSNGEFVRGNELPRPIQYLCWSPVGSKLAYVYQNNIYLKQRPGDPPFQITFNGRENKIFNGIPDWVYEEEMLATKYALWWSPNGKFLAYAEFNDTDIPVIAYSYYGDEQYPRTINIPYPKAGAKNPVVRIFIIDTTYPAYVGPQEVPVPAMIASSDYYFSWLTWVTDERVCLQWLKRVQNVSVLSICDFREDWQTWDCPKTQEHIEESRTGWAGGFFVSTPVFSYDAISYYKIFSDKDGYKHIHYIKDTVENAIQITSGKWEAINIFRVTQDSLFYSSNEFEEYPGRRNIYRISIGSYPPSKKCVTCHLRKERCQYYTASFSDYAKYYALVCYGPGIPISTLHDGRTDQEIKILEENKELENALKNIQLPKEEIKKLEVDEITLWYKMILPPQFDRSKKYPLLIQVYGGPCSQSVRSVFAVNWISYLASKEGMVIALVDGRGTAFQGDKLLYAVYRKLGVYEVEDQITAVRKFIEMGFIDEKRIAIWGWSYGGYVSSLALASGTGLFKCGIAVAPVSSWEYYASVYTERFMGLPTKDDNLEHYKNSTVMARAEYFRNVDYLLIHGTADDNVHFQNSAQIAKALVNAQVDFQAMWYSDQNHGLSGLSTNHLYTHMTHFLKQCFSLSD
The test is described as follows: Enzyme inhibition assay against human FAP (substrate Z-GP-AMC), Example 1. In kind it is biochemical. The settings on record: human FAP 5 ng/well, 50 μM Z-GP-AMC; Ki from IC50 by Cheng-Prusoff. On the procedure:
Binding Affinity Against Human Fibroblast Activation Protein (FAP)
An enzyme inhibition assay was performed to determine IC50 values and then the Cheng-Prusoff equation used to calculate the Ki given a known Km of the substrate Z-GP-AMC for FAP. To perform the assay, FAP (5 ng/well) and the test peptide at varying concentrations (i.e. 10^−6 to 10^−12) were incubated in a black 96-well plate for 10 minutes at RT on a shaker plate. Then, the substrate Z-GP-AMC was added to give a final concentration of 50 μM. The total reaction volume per well was 100 μL The reaction was allowed to incubate at RT on a shaker plate for 1 hour protected from light, and then fluorescence read with a BioTek Synergy LX plate reader at an ex/em (360/40 and 460/40). Experiments were performed in at least duplicate, and controls of buffer only, buffer and FAP enzyme, and buffer with substrate and FAP enzyme only were included for comparison. The buffer used for the assay was 50 mM Tris-HCl, 1M NaCl, and 1 mg/mL BSA, pH=7.5. Data was plotted in GraphPad Prism and non-linear regression used to calculate IC50 values. The compounds tested and Ki values of each were as follows: […]
On to `C[C@@H](O)[C@@H]1NC(=O)[C@@H](NC(=O)CCOCCOCCNC(=O)CN2CCN(CC(=O)O)CCN(CC(N)=O)CCN(CC(=O)O)CC2)CSCc2ccccc2CSC[C@@H](C(N)=O)NC(=O)[C@H](Cc2c[nH]c3ccccc23)NC(=O)[C@H](Cc2c[nH]c3ccccc23)NC(=O)[C@H](CCC(N)=O)NC(=O)[C@H](CCC(=O)O)NC(=O)[C@H](Cc2ccccc2)NC(=O)[C@@H]2CCCN2C1=O` [VMT-FAP-2-36, PSC-PEG2-[C(oXdB)TPFEQWWC]-NH2] ({X1-PEG2}-CTPFEQWWC-NH2; linker 1-9 via oXylylene), for which the Ki was 0.76 nM.

Turning to `CC(=O)N[C@@H](CO)C(=O)N[C@H]1CSCc2ccccc2CSC[C@@H](C(N)=O)NC(=O)[C@H](Cc2c[nH]c3ccccc23)NC(=O)[C@H](Cc2ccc(O)cc2)NC(=O)[C@H](CCC(N)=O)NC(=O)[C@H](CCC(=O)O)NC(=O)[C@H](Cc2ccccc2)NC(=O)[C@@H]2CCCN2C(=O)[C@H]([C@@H](C)O)NC1=O` [VMT-FAP-2-29, Ac-S[C(oXdB)TPFEQYWC]-NH2] (Ac-SCTPFEQYWC-NH2; linker 2-10 via oXylylene), the Ki is 13.6 nM.

Regarding `C[C@@H](O)[C@@H]1NC(=O)[C@@H](NC(=O)[C@H](CO)NC(=O)CCOCCOCCNC(=O)CN2CCN(CC(=O)O)CCN(CC(N)=O)CCN(CC(=O)O)CC2)CSCc2cccc(c2)CSC[C@@H](C(N)=O)NC(=O)[C@H](Cc2c[nH]c3ccccc23)NC(=O)[C@H](Cc2c[nH]c3ccccc23)NC(=O)[C@H](CCC(N)=O)NC(=O)[C@H](CCC(=O)O)NC(=O)[C@H](Cc2c[nH]c3ccccc23)NC(=O)[C@@H]2CCCN2C1=O` [VMT-FAP-2-48, PSC-PEG2-S-[C(mXdB)TPWEQWWC]-NH2] ({X1-PEG2}-SCTPWEQWWC-NH2; linker 2-10 via mXylylene), the Ki came out at 0.35 nM.

Take `CC(=O)N[C@@H](CO)C(=O)N[C@H]1CSCc2ccccc2CSC[C@@H](C(N)=O)NC(=O)[C@H](Cc2c[nH]c3ccccc23)NC(=O)[C@H](Cc2c[nH]c3ccccc23)NC(=O)[C@H](CC(=O)O)NC(=O)[C@H](CCC(=O)O)NC(=O)[C@H](Cc2ccccc2)NC(=O)[C@@H]2CCCN2C(=O)[C@H]([C@@H](C)O)NC1=O` [VMT-FAP-1-104, Ac-S[C(oXdB)TPFEDWWC]-NH2] (Ac-SCTPFEDWWC-NH2; linker 2-10 via oXylylene): the Ki worked out at 1.83 nM.

For `C[C@@H](O)[C@@H]1NC(=O)[C@@H](NC(=O)CCCCCNC(=O)CN2CCN(CC(=O)O)CCN(CC(N)=O)CCN(CC(=O)O)CC2)CSCc2ccccc2CSC[C@@H](C(N)=O)NC(=O)[C@H](Cc2c[nH]c3ccccc23)NC(=O)[C@H](Cc2c[nH]c3ccccc23)NC(=O)[C@H](CCC(N)=O)NC(=O)[C@H](CCC(=O)O)NC(=O)[C@H](Cc2c[nH]c3ccccc23)NC(=O)[C@@H]2CCCN2C1=O` [VMT-FAP-2-70, PSC-6AHA-[C(oXdB)TPWEQWWC]-NH2] ({X1-Ahx}-CTPWEQWWC-NH2; linker 1-9 via oXylylene), the Ki is 0.64 nM.

Consider `CCCC(=O)N[C@H]1CSCc2cc(CSCCNC(=O)CCOCCOCCNC(=O)CN3CCN(CC(=O)O)CCN(CC(N)=O)CCN(CC(=O)O)CC3)cc(c2)CSC[C@@H](C(N)=O)NC(=O)[C@H](Cc2c[nH]c3ccccc23)NC(=O)[C@H](Cc2c[nH]c3ccccc23)NC(=O)[C@H](CCC(N)=O)NC(=O)[C@H](CCC(=O)O)NC(=O)[C@H](Cc2c[nH]c3ccccc23)NC(=O)[C@@H]2CCCN2C(=O)[C@H]([C@@H](C)O)NC1=O` [VMT-FAP-2-57, But-[C(mXtB(CA-PEG2-PSC))TPWEQWWC]-NH2] (Butyryl-CTPWEQWWC-NH2; linker 1-9 via X2), for which the Ki came out at 0.71 nM.

For `C[C@@H]1NC(=O)[C@H](CCC(=O)O)NC(=O)[C@H](Cc2ccccc2)NC(=O)[C@@H]2CCCN2C(=O)[C@H]([C@@H](C)O)NC(=O)[C@@H](NC(=O)[C@@H](N)CO)CSCc2ccccc2CSC[C@@H](C(N)=O)NC(=O)[C@H](Cc2c[nH]c3ccccc23)NC(=O)[C@H](Cc2c[nH]c3ccccc23)NC1=O` [VMT-FAP-2-23, S[C(oXdB)TPFEAWWC]-NH2] (H-SCTPFEAWWC-NH2; linker 2-10 via oXylylene; N-terminus assumed), the Ki came out at 0.29 nM.

“PSC-Bn-NCS-PEG1-[C(oXdB)TPWEQWWC]-NH2 [VMT-FAP-2-72]”: the Ki was found to be 0.79 nM.

Consider `C[C@@H](O)[C@@H]1NC(=O)[C@@H](NC(=O)CCOCCOCCOCCOCCNC(=O)CN2CCN(CC(=O)O)CCN(CC(N)=O)CCN(CC(=O)O)CC2)CSCc2ccccc2CSC[C@@H](C(N)=O)NC(=O)[C@H](Cc2c[nH]c3ccccc23)NC(=O)[C@H](Cc2c[nH]c3ccccc23)NC(=O)[C@H](CCC(N)=O)NC(=O)[C@H](CCC(=O)O)NC(=O)[C@H](Cc2c[nH]c3ccccc23)NC(=O)[C@@H]2CCCN2C1=O` [VMT-FAP-2-69, PSC-PEG4-[C(oXdB)TPWEQWWC]-NH2] ({X1-PEG4}-CTPWEQWWC-NH2; linker 1-9 via oXylylene), for which the Ki was 0.01 nM.

Consider `C[C@@H](O)[C@@H]1NC(=O)[C@@H](NC(=O)CCOCCOCCNC(=O)CN2CCN(CC(=O)O)CCN(CC(=O)O)CC2)CSCc2ccccc2CSC[C@@H](C(N)=O)NC(=O)[C@H](Cc2c[nH]c3ccccc23)NC(=O)[C@H](Cc2c[nH]c3ccccc23)NC(=O)[C@H](CCC(N)=O)NC(=O)[C@H](CCC(=O)O)NC(=O)[C@H](Cc2c[nH]c3ccccc23)NC(=O)[C@@H]2CCCN2C1=O` [VMT-FAP-2-78, NOTA-PEG2-[C(oXdB)TPWEQWWC]-NH2] ({NOTA-PEG2}-CTPWEQWWC-NH2; linker 1-9 via oXylylene), for which the Ki stood at 0.01 nM.

With `CC(=O)N[C@H]1CSCc2ccccc2CSC[C@@H](C(N)=O)NC(=O)[C@H](Cc2c[nH]c3ccccc23)NC(=O)[C@H](Cc2c[nH]c3ccccc23)NC(=O)[C@H](CCC(N)=O)NC(=O)[C@H](CCC(=O)O)NC(=O)[C@H](Cc2ccccc2)NC(=O)[C@@H]2CCCN2C(=O)[C@H]([C@@H](C)O)NC1=O` [VMT-FAP-2-40, Ac-[C(oXdB)TPFEQWWC]-NH2] (Ac-CTPFEQWWC-NH2; linker 1-9 via oXylylene), the Ki is 1.27 nM.

As to `C[C@@H](O)[C@@H]1NC(=O)[C@@H](NC(=O)CCCCCNC(=O)CN2CCN(CC(=O)O)CCN(CC(N)=O)CCN(CC(=O)O)CC2)CSCc2ccccc2CSC[C@@H](C(=O)O)NC(=O)[C@H](Cc2c[nH]c3ccccc23)NC(=O)[C@H](Cc2c[nH]c3ccccc23)NC(=O)[C@H](CCC(N)=O)NC(=O)[C@H](CCC(=O)O)NC(=O)[C@H](Cc2c[nH]c3ccccc23)NC(=O)[C@@H]2CCCN2C1=O` [VMT-FAP-2-75, PSC-6AHA-[C(oXdB)TPWEQWWC]-COOH] ({X1-Ahx}-CTPWEQWWC-OH; linker 1-9 via oXylylene), the inhibitory constant (Ki) came to 1.26 nM.

For the compound “NODA-PEG2-[C(oXdB)TPWEQWWC]-NH2 [VMT-FAP-2-77]”, the inhibition constant (Ki) was determined as 4.59 nM.

Take `C[C@@H](O)[C@@H]1NC(=O)[C@@H](NC(=O)CCOCCOCCNC(=O)CN2CCN(CC(=O)O)CCN(CC(N)=O)CCN(CC(=O)O)CC2)CSCc2ccc(cc2)CSC[C@@H](C(N)=O)NC(=O)[C@H](Cc2c[nH]c3ccccc23)NC(=O)[C@H](Cc2c[nH]c3ccccc23)NC(=O)[C@H](CCC(N)=O)NC(=O)[C@H](CCC(=O)O)NC(=O)[C@H](Cc2c[nH]c3ccccc23)NC(=O)[C@@H]2CCCN2C1=O` [VMT-FAP-2-82, PSC-PEG2-[C(pXdB)TPWEQWWC]-NH2] ({X1-PEG2}-CTPWEQWWC-NH2; linker 1-9 via pXylylene): the inhibitory constant (Ki) was 2.68 nM.

Regarding `CC(=O)N[C@@H](CC(N)=O)C(=O)N[C@H]1CSCc2ccccc2CSC[C@@H](C(N)=O)NC(=O)[C@H](Cc2c[nH]c3ccccc23)NC(=O)[C@H](Cc2c[nH]c3ccccc23)NC(=O)[C@H](CCC(N)=O)NC(=O)[C@H](CCC(=O)O)NC(=O)[C@H](Cc2ccccc2)NC(=O)[C@@H]2CCCN2C(=O)[C@H]([C@@H](C)O)NC1=O` [VMT-FAP-1-17, Ac-N[C(oXdB)TPFEQWWC]-NH2] (Ac-NCTPFEQWWC-NH2; linker 2-10 via oXylylene), the Ki came to 10.7 nM.

Regarding `CC(=O)N[C@@H](CC(N)=O)C(=O)N[C@H]1CSCc2ccccc2CSC[C@@H](C(N)=O)NC(=O)[C@H](Cc2c[nH]c3ccccc23)NC(=O)[C@H](Cc2c[nH]c3ccccc23)NC(=O)[C@H](CCC(N)=O)NC(=O)[C@H](CCC(=O)O)NC(=O)[C@H](Cc2c[nH]cn2)NC(=O)[C@@H]2CCCN2C(=O)[C@H]([C@@H](C)O)NC1=O` [VMT-FAP-1-64, Ac-N[C(oXdB)TPHEQWWC]-NH2] (Ac-NCTPHEQWWC-NH2; linker 2-10 via oXylylene), the Ki amounted to 10.7 nM.
